Laboratory results published in patent publication US12247022B2, “Combinations for treatment of NASH/NAFLD and related diseases” (Pfizer Inc., priority 2018, dated 2025).

Assays:
Type in all cases: in vivo, rat
[1] = test system: Western diet fed Sprague Dawley rats; assay: Fed plasma triglyceride (TG), Western diet fed rats, oral dosing; conditions: 2 hours post dose; for increase in plasma TG in the fed state, relative to vehicle-administered Western diet fed rats: oral monotherapy; for reduction of plasma TG in the fed state, relative to vehicle-administered Western diet fed rats: oral
Experimental: (§1) A randomized, vehicle-controlled, 8-parallel arm study was conducted in male Sprague-Dawley rats (Charles River (Boston, MA)) to obtain circulating and hepatic TG levels. Standard laboratory conditions were used to house 96 rats (˜200 g); they were double housed and kept under 12:12-hour reverse light-dark schedule (lights off at 8:00 AM). Rats were randomized into chow or Western diet groups and dose groups upon arrival and were given a 14-day lead-in period on either standard rat chow or Western diet prior to the start of the study. Standard Laboratory Rodent chow diet, 5053, was from LabDiet (PMI, St Louis, Missouri). Western Diet, D12079Bi, was from Research Diets (New Brunswick, New Jersey).
For these studies, vehicle was prepared to make a 0.5% (wt/volume) of methyl cellulose (MC, Sigma Aldrich; 274429) in deionized water. The stock solutions with either Compound A (prepared from the tris salt) or Compound D were prepared with the respective compound to provide a concentration such that 10 ml of the solution would deliver the desired mg/kg dosage amount, where the average weight of the rats used was about 200 g.
Starting on Day 1 of the study, rats were dosed orally (10 mL/kg) with either vehicle control (0.5% MC (wt/volume %) in dionized water), low or high doses of Compound A (1 mg/kg or 10 mg/kg QD, respectively), low or high doses of Compound D (5 mg/kg or 30 mg/kg BID respectively), or co-administration of low doses (Compound A at 1 mg/kg QD and Compound D at 5 mg/kg BID), or co-administration of high doses (Compound A at 10 mg/kg QD and Compound D at 30 mg/kg BID)
Fed plasma analytes: Blood for determining fed plasma TG concentrations was collected 2 hours post dose (2 hours into the dark cycle) via lateral tail vein, transferred to BD Microtainer tubes coated with dipotassium ethylenediaminetetraacetic acid (K2EDTA) (PN365974), and centrifuged at 4° C. The resulting plasma samples were then analyzed on a Siemens Chemistry XPT clinical analyzer (Malven, PA) using Siemens triglycerides_2 assay reagents (ref 10335892).

[2] = test system: fatty acid synthase (FASN); assay: Hepatic lipogenic gene expression (qPCR), Western diet fed rats: FASN; conditions: Actb housekeeping gene
Experimental: as §1
(§2) Starting on Day 1 of the study, rats were dosed orally (10 mL/kg) with either vehicle control (0.5% MC (wt/volume %) in dionized water), low or high doses of Compound A (1 mg/kg or 10 mg/kg QD, respectively), low or high doses of Compound D (5 mg/kg or 30 mg/kg BID respectively), or co-administration of low doses (Compound A at 1 mg/kg QD and Compound D at 5 mg/kg BID), or co-administration of high doses (Compound A at 10 mg/kg QD and Compound D at 30 mg/kg BID) […]
(§3) Another portion of the pulverized liver was processed and analyzed for lipogenic gene expression. Rat taqman probes against ACC1, FASN, SCD1, PCSK9 and SREBP-1c were all assessed using Actb as housekeeping gene on qPCR.

SCD1 = assay: Hepatic lipogenic gene expression (qPCR), Western diet fed rats: SCD1; conditions: Actb housekeeping gene, Day 28 liver
Experimental: as §1, §2, §3

[3] = test system: alpha smooth muscle actin (αSMA); assay: Hepatic αSMA immunohistochemistry, CDAHFD fed rats; conditions: twice daily for 6 weeks; Compound A 5 mg/kg, Compound D 30 mg/kg, or co-administration; 12 weeks on CDAHFD
Experimental: (§4) A randomized, vehicle-controlled, 5-parallel arm study was conducted in male Wistar-Han rats (Charles River (Boston, MA)) fed a choline-deficient and high fat diet (CDAHFD) (Research diets; A16092003) to identify differences in improvements in markers of hepatic inflammation and fibrosis when administering either Compound A or Compound D alone as monotherapy or in combination. Standard laboratory conditions were used to house 60 rats (˜200 g); they were double housed and kept under 12:12-hour reverse light-dark schedule (lights off at 8:00 AM). Rats were fed choline deficient and high fat diet (CDAHFD) beginning 6-weeks prior to initiation of the study. Rats, randomized into 4 dosing groups (n=12/group), received twice daily administration of vehicle, Compound A (5 mg/kg) monotherapy, Compound D (30 mg/kg) monotherapy, or co-administration Compound A (5 mg/kg) and Compound D (30 mg/kg) for a period of 6-weeks. […] Histology was assessed following 6-weeks of drug administration which corresponded to 12 weeks on the CDAHFD. […]
(§5) Following the 12-weeks on CDAHFD, the animals were sacrificed by CO2 asphyxiation. […] A portion of the pulverized liver sample from each animal was processed and analyzed for gene expression markers of fibrogenesis. Rat taqman probes against […]SMA and COL1A1 were all assessed using Actb as housekeeping gene on qPCR. […]

Collagen = assay: Hepatic Picrosirius red staining (collagen), CDAHFD fed rats; conditions: twice daily for 6 weeks; Compound A 5 mg/kg, Compound D 30 mg/kg, or co-administration; 12 weeks on CDAHFD
Experimental: as §4, §5

[4] = test system: alpha smooth muscle actin (αSMA); assay: Hepatic αSMA gene expression (qPCR), CDAHFD fed rats; conditions: twice daily for 6 weeks, Compound A 5 mg/kg, Compound D 30 mg/kg, or co-administration, Actb
Experimental: as §4
(§6) Following the 12-weeks on CDAHFD, the animals were sacrificed by CO2 asphyxiation. […] A portion of the pulverized liver sample from each animal was processed and analyzed for gene expression markers of fibrogenesis. Rat taqman probes against […]SMA and COL1A1 were all assessed using Actb as housekeeping gene on qPCR.

COL1A1 = assay: Hepatic COL1A1 gene expression (qPCR), CDAHFD fed rats; conditions: twice daily for 6 weeks, Compound A 5 mg/kg, Compound D 30 mg/kg, or co-administration, Actb
Experimental: as §4, §6

Compound: COc1cc(C(=O)N2CCC3(CC2)CC(=O)c2c(cnn2C(C)C)C3)cc(-c2ccc(C(=O)O)cc2)n1 [Compound A, 4-(4-(1-isopropyl-7-oxo-1,4,6,7-tetrahydrospiro[indazole-5,4′-piperidine]-1′-carbonyl)-6-methoxypyridin-2-yl)benzoic acid]
- increase in plasma TG in the fed state, relative to vehicle-administered Western diet fed rats ([1]; high dose (Compound A 10 mg/kg QD)): 1.3 fold
- increase in plasma TG in the fed state, relative to vehicle-administered Western diet fed rats ([1]; low dose (Compound A 1 mg/kg QD)): 1.7 fold
- hepatic FASN gene expression relative to Western Diet fed and vehicle treated animals ([2]; Compound A high dose only (10 mg/kg QD)): trended to further increase
- hepatic SCD1 gene expression relative to Western Diet fed and vehicle treated animals (SCD1): trended to further increase
- reduction of liver αSMA staining [3]: 41%
- reduction of Picosrius red (PSR) staining (Collagen): 26%
- hepatic αSMA gene expression [4]: reduced
- hepatic collagen A1A (COL1A1) gene expression (COL1A1): reduced

Compound: CCOc1cccnc1Oc1cncc(-c2ncc(C(=O)N[C@H]3CCOC3)cn2)c1 [Compound D, (S)-2-(5-((3-ethoxypyridin-2-yl)oxy)pyridin-3-yl)-N-(tetrahydrofuran-3-yl)pyrimidine-5-carboxamide]
- reduction of plasma TG in the fed state, relative to vehicle-administered Western diet fed rats ([1]; high dose (Compound D 30 mg/kg BID; co-administration: Compound A 10 mg/kg QD and Compound D 30 mg/kg BID)): 63%
- reduction of plasma TG in the fed state, relative to vehicle-administered Western diet fed rats ([1]; low dose (Compound D 5 mg/kg BID; co-administration: Compound A 1 mg/kg QD and Compound D 5 mg/kg BID)): 55%
- hepatic FASN gene expression relative to Western Diet fed and vehicle treated animals ([2]; Day 28 liver): decreased expression
- hepatic SCD1 gene expression relative to Western Diet fed and vehicle treated animals (SCD1): decreased expression
- reduction of liver αSMA staining [3]: 23%
- reduction of Picosrius red (PSR) staining (Collagen): 20%
- hepatic αSMA gene expression [4]: reduced
- hepatic collagen A1A (COL1A1) gene expression (COL1A1): reduced
